From patent US9266878B2, “Phosphatidylinositol 3-kinase inhibitors” (Gilead Calistoga LLC, priority 2012, dated 2016)

Assays:
Assay in all cases: Enzymatic activity of PI3K isoforms, TR-FRET assay (PIP3 formation)
Format in all cases: biochemical
PI3Kα = PI3Kα (Homo sapiens (Human), UniProt P42336); conditions: bound given in uM
In short: (§1)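 After 30 min at 25° C, reactions were quenched with 10 mM EDTA plus 10 nM labeled-PIP3 and 35 nM Europium-GRP-1, and TR-FRET was read (Ex 340, Em 615/665 nm). Enzymes were purified recombinant heterodimers; product PIP3 competes off the labeled tracer. Values given as IC50, nM.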

PI3Kδ = PI3Kδ (Homo sapiens (Human), UniProt O00329); conditions: bound given in nM
In short: as §1

PI3Kβ = PI3Kβ (Homo sapiens (Human), UniProt P42338)
PI3Kβ, sequence (P42338 whole entry, the tested form may be a part): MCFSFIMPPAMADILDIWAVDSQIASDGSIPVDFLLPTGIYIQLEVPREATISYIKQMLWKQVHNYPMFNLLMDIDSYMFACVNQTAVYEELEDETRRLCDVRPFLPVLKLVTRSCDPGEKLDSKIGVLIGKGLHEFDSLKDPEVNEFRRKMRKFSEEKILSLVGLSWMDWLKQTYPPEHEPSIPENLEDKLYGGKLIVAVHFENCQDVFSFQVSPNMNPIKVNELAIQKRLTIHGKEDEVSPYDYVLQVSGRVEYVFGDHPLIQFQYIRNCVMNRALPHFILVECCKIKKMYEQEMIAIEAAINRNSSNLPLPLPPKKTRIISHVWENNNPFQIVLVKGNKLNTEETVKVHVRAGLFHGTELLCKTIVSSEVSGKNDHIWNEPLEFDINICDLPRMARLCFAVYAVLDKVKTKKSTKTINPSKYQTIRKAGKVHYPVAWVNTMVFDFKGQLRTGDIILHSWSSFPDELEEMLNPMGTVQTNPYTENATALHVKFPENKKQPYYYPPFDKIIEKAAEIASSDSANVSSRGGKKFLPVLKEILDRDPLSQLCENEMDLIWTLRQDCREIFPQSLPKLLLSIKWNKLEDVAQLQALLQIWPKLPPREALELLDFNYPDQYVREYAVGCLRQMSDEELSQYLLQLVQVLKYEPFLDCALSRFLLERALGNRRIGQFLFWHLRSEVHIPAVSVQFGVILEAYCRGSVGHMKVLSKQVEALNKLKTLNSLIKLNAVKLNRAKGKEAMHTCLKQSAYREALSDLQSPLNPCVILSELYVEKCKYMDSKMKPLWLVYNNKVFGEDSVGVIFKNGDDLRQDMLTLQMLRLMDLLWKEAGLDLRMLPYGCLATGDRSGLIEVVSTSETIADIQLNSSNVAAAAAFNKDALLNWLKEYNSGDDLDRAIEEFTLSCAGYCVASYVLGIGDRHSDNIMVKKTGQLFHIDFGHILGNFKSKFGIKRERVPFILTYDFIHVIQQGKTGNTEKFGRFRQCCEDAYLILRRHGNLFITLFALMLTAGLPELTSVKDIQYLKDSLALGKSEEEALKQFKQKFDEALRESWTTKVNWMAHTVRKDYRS
PI3Kβ, sequence (P27986 whole entry partner, the tested form may be a part): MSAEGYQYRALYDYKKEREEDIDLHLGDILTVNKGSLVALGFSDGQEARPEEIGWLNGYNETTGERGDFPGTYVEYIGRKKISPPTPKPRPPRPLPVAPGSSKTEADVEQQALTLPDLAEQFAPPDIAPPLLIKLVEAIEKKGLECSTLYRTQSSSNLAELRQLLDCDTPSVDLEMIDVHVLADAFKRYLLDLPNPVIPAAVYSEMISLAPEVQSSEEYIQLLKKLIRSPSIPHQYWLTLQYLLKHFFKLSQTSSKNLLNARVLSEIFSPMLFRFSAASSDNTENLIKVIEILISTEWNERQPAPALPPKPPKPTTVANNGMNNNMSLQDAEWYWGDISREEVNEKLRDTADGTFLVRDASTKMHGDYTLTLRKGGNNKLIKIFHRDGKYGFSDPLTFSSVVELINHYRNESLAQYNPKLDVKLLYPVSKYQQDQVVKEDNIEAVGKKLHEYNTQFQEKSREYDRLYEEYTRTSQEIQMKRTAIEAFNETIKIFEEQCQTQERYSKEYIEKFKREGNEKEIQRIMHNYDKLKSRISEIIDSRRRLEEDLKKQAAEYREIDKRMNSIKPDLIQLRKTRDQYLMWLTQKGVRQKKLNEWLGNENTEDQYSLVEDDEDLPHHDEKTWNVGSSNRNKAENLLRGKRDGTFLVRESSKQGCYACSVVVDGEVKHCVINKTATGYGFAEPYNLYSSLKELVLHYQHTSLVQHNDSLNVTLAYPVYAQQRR
In short: (§2)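 IC50 (nM) reflects inhibition of PIP3 formation by purified recombinant heterodimeric PI3K, measured as loss of TR-FRET signal. The read-out comes from competition between enzyme-made PIP3 and labelled PIP3 for binding to the GRP-1 pleckstrin homology domain.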

PI3Kγ = PI3Kγ (Homo sapiens (Human), UniProt P48736)
PI3Kγ, sequence (P48736 whole entry): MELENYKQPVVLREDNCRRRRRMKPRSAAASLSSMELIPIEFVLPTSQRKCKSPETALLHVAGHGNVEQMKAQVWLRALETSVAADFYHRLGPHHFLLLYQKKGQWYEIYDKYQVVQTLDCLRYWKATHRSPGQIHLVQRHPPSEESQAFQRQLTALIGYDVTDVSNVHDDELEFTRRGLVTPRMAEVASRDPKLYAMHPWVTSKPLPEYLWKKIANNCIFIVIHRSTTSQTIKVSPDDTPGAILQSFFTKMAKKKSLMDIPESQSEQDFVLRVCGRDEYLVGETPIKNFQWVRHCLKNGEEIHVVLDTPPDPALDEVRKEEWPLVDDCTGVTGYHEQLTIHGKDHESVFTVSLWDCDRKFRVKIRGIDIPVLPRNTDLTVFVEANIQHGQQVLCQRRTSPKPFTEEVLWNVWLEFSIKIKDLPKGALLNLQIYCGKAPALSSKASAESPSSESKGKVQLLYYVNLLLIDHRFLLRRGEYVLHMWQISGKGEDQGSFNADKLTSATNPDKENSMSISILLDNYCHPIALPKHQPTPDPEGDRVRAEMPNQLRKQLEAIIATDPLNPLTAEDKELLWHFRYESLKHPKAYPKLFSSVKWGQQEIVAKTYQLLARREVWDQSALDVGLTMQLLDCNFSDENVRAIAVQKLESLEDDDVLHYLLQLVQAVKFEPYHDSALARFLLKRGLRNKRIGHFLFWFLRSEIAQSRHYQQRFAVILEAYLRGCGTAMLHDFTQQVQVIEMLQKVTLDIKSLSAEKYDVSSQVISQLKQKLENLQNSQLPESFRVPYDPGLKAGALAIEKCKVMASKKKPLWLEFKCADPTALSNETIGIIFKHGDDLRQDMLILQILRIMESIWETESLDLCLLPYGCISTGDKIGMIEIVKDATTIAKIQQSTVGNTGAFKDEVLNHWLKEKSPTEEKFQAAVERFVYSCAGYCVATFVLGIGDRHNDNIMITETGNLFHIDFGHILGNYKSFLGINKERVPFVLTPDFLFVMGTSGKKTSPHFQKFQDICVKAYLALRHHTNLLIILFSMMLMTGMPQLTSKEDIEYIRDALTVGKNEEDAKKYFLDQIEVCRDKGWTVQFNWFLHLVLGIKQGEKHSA
PI3Kγ, sequence (Q8WYR1 whole entry partner): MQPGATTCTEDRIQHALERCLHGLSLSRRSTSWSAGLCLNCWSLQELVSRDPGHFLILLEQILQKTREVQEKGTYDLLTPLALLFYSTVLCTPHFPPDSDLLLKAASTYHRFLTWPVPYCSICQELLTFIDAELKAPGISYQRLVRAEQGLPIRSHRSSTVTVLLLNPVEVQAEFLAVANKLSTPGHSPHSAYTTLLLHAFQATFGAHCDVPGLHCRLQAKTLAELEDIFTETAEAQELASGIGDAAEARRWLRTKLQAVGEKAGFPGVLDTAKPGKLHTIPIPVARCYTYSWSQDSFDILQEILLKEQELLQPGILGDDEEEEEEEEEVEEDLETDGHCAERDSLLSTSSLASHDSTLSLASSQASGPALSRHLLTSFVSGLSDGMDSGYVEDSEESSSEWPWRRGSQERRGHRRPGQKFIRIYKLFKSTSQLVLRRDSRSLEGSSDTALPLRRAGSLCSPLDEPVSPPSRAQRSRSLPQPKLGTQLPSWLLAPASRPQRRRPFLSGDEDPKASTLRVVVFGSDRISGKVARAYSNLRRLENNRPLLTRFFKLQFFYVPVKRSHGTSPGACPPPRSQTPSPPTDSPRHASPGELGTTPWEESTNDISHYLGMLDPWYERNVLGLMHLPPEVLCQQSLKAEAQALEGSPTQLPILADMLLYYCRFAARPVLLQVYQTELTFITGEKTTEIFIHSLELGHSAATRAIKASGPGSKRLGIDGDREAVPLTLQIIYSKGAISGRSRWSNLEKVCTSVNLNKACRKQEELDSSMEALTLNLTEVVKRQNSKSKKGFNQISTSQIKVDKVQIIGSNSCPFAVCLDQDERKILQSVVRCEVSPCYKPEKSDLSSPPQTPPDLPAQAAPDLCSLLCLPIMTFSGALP
In short: as §2

PI3Kα, sequence (P42336 whole entry): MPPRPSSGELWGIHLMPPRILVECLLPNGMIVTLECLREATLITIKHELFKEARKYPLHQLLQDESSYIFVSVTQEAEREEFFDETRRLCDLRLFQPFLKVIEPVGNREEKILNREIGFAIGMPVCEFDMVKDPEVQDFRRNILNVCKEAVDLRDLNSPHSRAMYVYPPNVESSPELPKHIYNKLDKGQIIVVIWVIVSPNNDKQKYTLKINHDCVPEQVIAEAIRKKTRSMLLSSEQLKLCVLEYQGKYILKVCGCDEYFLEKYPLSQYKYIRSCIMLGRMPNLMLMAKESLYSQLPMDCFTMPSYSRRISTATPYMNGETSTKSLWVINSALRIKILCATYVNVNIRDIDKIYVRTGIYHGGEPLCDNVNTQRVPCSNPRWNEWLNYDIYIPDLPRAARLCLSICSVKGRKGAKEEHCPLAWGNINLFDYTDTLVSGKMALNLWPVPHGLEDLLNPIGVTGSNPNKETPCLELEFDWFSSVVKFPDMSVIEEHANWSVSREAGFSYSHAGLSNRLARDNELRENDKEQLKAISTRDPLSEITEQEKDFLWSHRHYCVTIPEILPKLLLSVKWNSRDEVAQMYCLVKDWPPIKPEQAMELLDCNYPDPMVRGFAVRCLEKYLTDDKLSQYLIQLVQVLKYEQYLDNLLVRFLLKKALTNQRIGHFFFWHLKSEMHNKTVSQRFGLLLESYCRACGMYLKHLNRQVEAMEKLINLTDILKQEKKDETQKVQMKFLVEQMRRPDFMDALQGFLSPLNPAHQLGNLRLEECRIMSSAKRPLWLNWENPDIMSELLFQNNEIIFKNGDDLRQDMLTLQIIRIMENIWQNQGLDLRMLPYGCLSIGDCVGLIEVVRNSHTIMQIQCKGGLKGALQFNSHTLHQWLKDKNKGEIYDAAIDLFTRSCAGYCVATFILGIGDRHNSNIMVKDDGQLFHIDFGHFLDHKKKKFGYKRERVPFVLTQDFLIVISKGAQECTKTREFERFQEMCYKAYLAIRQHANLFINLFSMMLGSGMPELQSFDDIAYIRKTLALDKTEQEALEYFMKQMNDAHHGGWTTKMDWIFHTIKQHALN
PI3Kα, sequence (P27986 whole entry partner): as the sequence (P27986 whole entry partner, the tested form may be a part) above

Compound | IC50 (PI3Kα) [µM] | IC50 (PI3Kδ) [nM] | IC50 (PI3Kβ; bound given in uM) [µM] | IC50 (PI3Kγ; bound given in uM) [µM] | IC50 (PI3Kβ; bound given in nM) [µM] | IC50 (PI3Kγ; bound given in nM) [µM]
C[C@H](Nc1ncnc(N)c1C#Cc1ccc(F)cn1)c1nc2cccc(F)c2c(=O)n1-c1cccc(F)c1 [Compound 99a, (S)-2-(1-((6-amino-5-((5-fluoropyridin-2-yl)ethynyl)pyrimidin-4-yl)amino)ethyl)-5-fluoro-3-(3-fluorophenyl)quinazolin-4(3H)-one] | > 1 | < 100 | > 1 | > 1 | – | –
C[C@H](Nc1ncnc(N)c1C#Cc1cnccn1)c1nc2c(F)cccc2c(=O)n1-c1cc(F)cc(F)c1 [Compound 100a, (S)-2-(1-((6-amino-5-(pyrazin-2-ylethynyl)pyrimidin-4-yl)amino)ethyl)-3-(3,5-difluorophenyl)-8-fluoroquinazolin-4(3H)-one] | > 1 | < 100 | > 1 | > 1 | – | –
CC[C@H](Nc1ncnc(N)c1C#Cc1cnccn1)c1nc2cccc(F)c2c(=O)n1-c1cc(F)cc(F)c1 [Compound 107a, (S)-2-(1-((6-amino-5-(pyrazin-2-ylethynyl)pyrimidin-4-yl)amino)propyl)-3-(3,5-difluorophenyl)-5-fluoroquinazolin-4(3H)-one] | > 1 | < 100 | > 1 | > 1 | – | –
CC[C@H](Nc1ncnc(N)c1C#Cc1cnccn1)c1nc2cccc(C)c2c(=O)n1-c1cc(F)cc(F)c1 [Compound 108a, (S)-2-(1-((6-amino-5-(pyrazin-2-ylethynyl)pyrimidin-4-yl)amino)propyl)-3-(3,5-difluorophenyl)-5-methylquinazolin-4(3H)-one] | > 1 | < 100 | > 1 | > 1 | – | –
C[C@H](Nc1ncnc(N)c1C#Cc1ncccn1)c1nc2cccc(Cl)c2c(=O)n1-c1cccnc1 [Compound 117a, (S)-2-(1-((6-amino-5-(pyrimidin-2-ylethynyl)pyrimidin-4-yl)amino)ethyl)-5-chloro-3-(pyridin-3-yl)quinazolin-4(3H)-one] | > 1 | < 100 | > 1 | > 1 | – | –
C[C@H](Nc1ncnc(N)c1C#Cc1cnccn1)c1nc2cccc(Cl)c2c(=O)n1C1C[C@H]2CC[C@@H](C1)N2C (stereo partly drawn) [Compound 124a, 2-((S)-1-((6-amino-5-(pyrazin-2-ylethynyl)pyrimidin-4-yl)amino)ethyl)-5-chloro-3-((1R,5S)-8-methyl-8-azabicyclo[3.2.1]octan-3-yl)quinazolin-4(3H)-one] | > 1 | < 100 | > 1 | > 1 | – | –
C[C@H](Nc1ncnc(N)c1C#Cc1ccc(F)cn1)c1nc2cccc(Cl)c2c(=O)n1-c1cccc(CNS(C)(=O)=O)c1 [Compound 130a, (S)—N-(3-(2-(1-((6-amino-5-((5-fluoropyridin-2-yl)ethynyl)pyrimidin-4-yl)amino)ethyl)-5-chloro-4-oxoquinazolin-3(4H)-yl)benzyl)methanesulfonamide] | > 1 | < 100 | > 1 | > 1 | – | –
CC(C)CS(=O)(=O)NCc1cccc(-n2c([C@H](C)Nc3ncnc(N)c3C#Cc3ccc(F)cn3)nc3cccc(Cl)c3c2=O)c1 [Compound 131a, (S)—N-(3-(2-(1-((6-amino-5-((5-fluoropyridin-2-yl)ethynyl)pyrimidin-4-yl)amino)ethyl)-5-chloro-4-oxoquinazolin-3(4H)-yl)benzyl)-2-methylpropane-1-sulfonamide] | > 1 | < 100 | > 1 | > 1 | – | –
C[C@H](Nc1ncnc(N)c1C#Cc1ccc(C(F)(F)F)cn1)c1nc2cccc(Cl)c2c(=O)n1-c1ccccc1 [Compound 132a, (S)-2-(1-((6-amino-5-((5-(trifluoromethyl)pyridin-2-yl)ethynyl)pyrimidin-4-yl)amino)ethyl)-5-chloro-3-phenylquinazolin-4(3H)-one] | > 1 | < 100 | > 1 | – | – | < 0.1
C[C@H](Nc1ncnc(N)c1C#Cc1ccc(C(=O)O)cn1)c1nc2cccc(Cl)c2c(=O)n1-c1ccccc1 [Compound 138a, (S)-6-((4-amino-6-((1-(5-chloro-4-oxo-3-phenyl-3,4-dihydroquinazolin-2-yl)ethyl)amino)pyrimidin-5-yl)ethynyl)nicotinic acid] | > 1 | < 100 | > 1 | > 1 | – | –

Next, values leading:

IC50 (PI3Kα) [µM] | IC50 (PI3Kδ) [nM] | IC50 (PI3Kβ; bound given in uM) [µM] | IC50 (PI3Kγ; bound given in uM) [µM] | IC50 (PI3Kβ; bound given in nM) [µM] | IC50 (PI3Kγ; bound given in nM) [µM] | Compound
> 1 | < 100 | > 1 | > 1 | – | – | C[C@H](Nc1ncnc(N)c1C#Cc1cnccn1)c1nc2cccc(F)c2c(=O)n1-c1cccc(F)c1 [Compound 101a, (S)-2-(1-((6-amino-5-(pyrazin-2-ylethynyl)pyrimidin-4-yl)amino)ethyl)-5-fluoro-3-(3-fluorophenyl)quinazolin-4(3H)-one]
> 1 | < 100 | > 1 | > 1 | – | – | C[C@H](Nc1ncnc(N)c1C#Cc1ncccn1)c1nc2cccc(Cl)c2c(=O)n1-c1cc(F)cc(F)c1 [Compound 103a, (S)-2-(1-((6-amino-5-(pyrimidin-2-ylethynyl)pyrimidin-4-yl)amino)ethyl)-5-chloro-3-(3,5-difluorophenyl)quinazolin-4(3H)-one]
> 1 | < 100 | > 1 | > 1 | – | – | Cc1cccc2nc([C@H](C)Nc3ncnc(N)c3C#Cc3ncccn3)n(-c3cc(F)cc(F)c3)c(=O)c12 [Compound 105a, (S)-2-(1-((6-amino-5-(pyrimidin-2-ylethynyl)pyrimidin-4-yl)amino)ethyl)-3-(3,5-difluorophenyl)-5-methylquinazolin-4(3H)-one]
> 1 | < 100 | > 1 | > 1 | – | – | C[C@H](Nc1ncnc(N)c1C#Cc1ccccc1)c1nc2cccc(F)c2c(=O)n1-c1cccc(C#N)c1 [Compound 110a, (S)-3-(2-(1-((6-amino-5-(phenylethynyl)pyrimidin-4-yl)amino)ethyl)-5-fluoro-4-oxoquinazolin-3(4H)-yl)benzonitrile]
> 1 | < 100 | > 1 | > 1 | – | – | C[C@H](Nc1ncnc(N)c1C#Cc1cnccn1)c1nc2cccc(S(C)(=O)=O)c2c(=O)n1-c1ccccc1 [Compound 113a, (S)-2-(1-((6-amino-5-(pyrazin-2-ylethynyl)pyrimidin-4-yl)amino)ethyl)-5-(methylsulfonyl)-3-phenylquinazolin-4(3H)-one]
> 1 | < 100 | > 1 | > 1 | – | – | Cc1cccc2nc([C@H](C)Nc3ncnc(N)c3C#Cc3cnccn3)n(-c3cncc(F)c3)c(=O)c12 [Compound 120a, (S)-2-(1-((6-amino-5-(pyrazin-2-ylethynyl)pyrimidin-4-yl)amino)ethyl)-3-(5-fluoropyridin-3-yl)-5-methylquinazolin-4(3H)-one]
> 1 | < 100 | > 1 | > 1 | – | – | C[C@H](Nc1ncnc(N)c1C#Cc1cnccn1)c1nc2cccc(Cl)c2c(=O)n1N1CCCCCC1 [Compound 126a, (S)-2-(1-((6-amino-5-(pyrazin-2-ylethynyl)pyrimidin-4-yl)amino)ethyl)-3-(azepan-1-yl)-5-chloroquinazolin-4(3H)-one]
> 1 | < 100 | – | > 1 | < 0.1 | – | C[C@H](Nc1ncnc(N)c1C#Cc1ccc(F)cn1)c1nc2cccc(Cl)c2c(=O)n1N1CCNCC1 [Compound 127a, (S)-2-(1-((6-amino-5-((5-fluoropyridin-2-yl)ethynyl)pyrimidin-4-yl)amino)ethyl)-5-chloro-3-(piperazin-1-yl)quinazolin-4(3H)-one]
> 1 | < 100 | > 1 | > 1 | – | – | Cc1cccc2nc([C@H](C)Nc3ncnc(N)c3C#Cc3ccc(F)cn3)n(-c3cccc(CN(C)S(C)(=O)=O)c3)c(=O)c12 [Compound 128a, (S)—N-(3-(2-(1-((6-amino-5-((5-fluoropyridin-2-yl)ethynyl)pyrimidin-4-yl)amino)ethyl)-5-methyl-4-oxoquinazolin-3(4H)-yl)benzyl)-N-methylmethanesulfonamide]
> 1 | < 100 | > 1 | > 1 | – | – | C[C@H](Nc1ncnc(N)c1C#Cc1ccc(F)cn1)c1nc2cccc(Cl)c2c(=O)n1-c1cccc(CN(C)S(C)(=O)=O)c1 [Compound 129a, (S)—N-(3-(2-(1-((6-amino-5-((5-fluoropyridin-2-yl)ethynyl)pyrimidin-4-yl)amino)ethyl)-5-chloro-4-oxoquinazolin-3(4H)-yl)benzyl)-N-methylmethanesulfonamide]
> 1 | < 100 | > 1 | > 1 | – | – | C[C@H](Nc1ncnc(N)c1C#CC1CCCCC1)c1nc2cccc(Cl)c2c(=O)n1-c1ccccc1 [Compound 145a, (S)-2-(1-((6-amino-5-(cyclohexylethynyl)pyrimidin-4-yl)amino)ethyl)-5-chloro-3-phenylquinazolin-4(3H)-one]
> 1 | < 100 | – | – | < 0.1 | < 0.1 | C[C@H](Nc1ncnc(N)c1C#Cc1cc(C(F)F)ccn1)c1nc2cccc(Cl)c2c(=O)n1-c1ccccc1 [Compound 149a, (S)-2-(1-((6-amino-5-((4-(difluoromethyl)pyridin-2-yl)ethynyl)pyrimidin-4-yl)amino)ethyl)-5-chloro-3-phenylquinazolin-4(3H)-one]
